This passage reports IC50 and inhibition results from US8796244B2, “Imidazopyridine derivatives as inhibitors of receptor tyrosine kinases” (Astex Therapeutics Ltd, priority 2008, dated 2014).

Like-named read-outs stand apart in the source and are kept apart here. Where only a bound is given, the exact number is not on record here.

For one test, the target named is VEGFR2 (Homo sapiens (Human), UniProt P35968). The test is described as follows: VEGFR2 in vitro kinase inhibitory activity assay (TRF, Flt3 substrate). Format: biochemical.
Test [1] relates to LP-1 cell line (FGF-1/Heparin induced pERK). The test can be described thus: Cell-based pERK ELISA, LP-1 cells. As to conditions: Homo sapiens; for IC50: LP-1, read-out: LP-1 pERK ELISA (μM).
Test [2] relates to parental wild-type Ba/F3 cells. The test can be described thus: Ba/F3 (WT) cell proliferation assay (Alamar Blue). Particulars: Mus musculus; for IC50: 72 hours, Alamar Blue, read-out: BaF3 WT prolif. Format: cell-based. For orientation: Alamar Blue is a resazurin reagent that responds to reducing activity.
The next test relates to Ba/F3-TEL-FGFR3 cells. The test can be described thus: Ba/F3-TEL-FGFR3 cell proliferation assay (Alamar Blue). Format: cell-based. As to conditions: 72 hours, Alamar Blue; read-out: BaF3-TEL-FGFR3 prolif.
The mark [3] stands for this setting: BaF3, read-out: BaF3 WT prolif, % inhibition.
[4] abbreviates: BaF3, at 10 μM, read-out: BaF3 WT prolif, % inhibition.

Sequence of VEGFR2 (P35968 20-1356): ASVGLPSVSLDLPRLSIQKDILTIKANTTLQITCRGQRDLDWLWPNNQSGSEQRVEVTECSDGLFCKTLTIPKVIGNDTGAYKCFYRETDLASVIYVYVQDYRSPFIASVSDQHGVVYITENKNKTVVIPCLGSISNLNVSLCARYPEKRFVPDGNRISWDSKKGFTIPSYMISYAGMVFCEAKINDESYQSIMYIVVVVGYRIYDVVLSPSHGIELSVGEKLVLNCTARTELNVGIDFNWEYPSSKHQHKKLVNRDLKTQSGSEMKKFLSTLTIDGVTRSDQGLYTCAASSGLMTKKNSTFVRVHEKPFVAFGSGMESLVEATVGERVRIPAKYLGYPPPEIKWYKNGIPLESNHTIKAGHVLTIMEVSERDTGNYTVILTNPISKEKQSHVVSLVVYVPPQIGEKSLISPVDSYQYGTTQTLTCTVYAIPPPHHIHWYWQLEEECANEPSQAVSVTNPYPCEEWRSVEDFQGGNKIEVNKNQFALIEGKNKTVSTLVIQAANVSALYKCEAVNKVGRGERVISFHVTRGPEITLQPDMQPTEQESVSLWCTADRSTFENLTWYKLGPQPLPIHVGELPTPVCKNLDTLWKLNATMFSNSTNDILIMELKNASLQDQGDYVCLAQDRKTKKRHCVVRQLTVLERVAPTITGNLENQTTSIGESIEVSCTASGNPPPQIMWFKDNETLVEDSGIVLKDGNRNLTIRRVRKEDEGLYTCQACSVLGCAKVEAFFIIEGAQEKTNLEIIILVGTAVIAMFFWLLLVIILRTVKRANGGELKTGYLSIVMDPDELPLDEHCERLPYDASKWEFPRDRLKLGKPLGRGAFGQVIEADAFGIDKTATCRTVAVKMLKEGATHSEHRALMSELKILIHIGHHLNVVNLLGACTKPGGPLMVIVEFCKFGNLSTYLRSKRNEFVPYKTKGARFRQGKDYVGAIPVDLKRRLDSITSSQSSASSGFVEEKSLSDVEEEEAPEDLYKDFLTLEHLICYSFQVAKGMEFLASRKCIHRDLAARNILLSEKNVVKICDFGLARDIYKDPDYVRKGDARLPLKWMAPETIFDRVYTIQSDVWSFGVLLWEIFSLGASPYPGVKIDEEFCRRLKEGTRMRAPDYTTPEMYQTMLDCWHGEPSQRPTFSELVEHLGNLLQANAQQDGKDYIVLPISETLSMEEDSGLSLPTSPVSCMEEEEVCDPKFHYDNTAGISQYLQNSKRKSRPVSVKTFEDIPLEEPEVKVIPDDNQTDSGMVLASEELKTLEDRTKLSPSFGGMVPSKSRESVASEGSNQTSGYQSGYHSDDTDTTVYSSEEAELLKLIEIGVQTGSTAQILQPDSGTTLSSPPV

`CCNc1nc(-c2ccn3c(-c4cccc(NC(=O)NCC(F)(F)F)c4)cnc3c2)ncc1F` [Example 177]: the IC50 on VEGFR2 was > 1000 nM. In addition, the inhibition at 10 µM in test [1] (LP-1, read-out: LP-1 pERK ELISA, % inhibition) is 47%; in test [2] (setting [3]) it was 16%.

Take `CNC(=O)C(C)(C)n1cc(-c2ccn3c(-c4cccc(NC(=O)NCC(F)(F)F)c4)cnc3c2)cn1` [Example 69, N-Methyl-2-[4-(3-{3-[3-(2,2,2-trifluoro-ethyl)-ureido]-phenyl}-imidazo[1,2-a]pyridin-7-yl)-pyrazol-1-yl]-isobutyramide]: the IC50 in test [1] was determined as 0.096 µM; in the test with Ba/F3-TEL-FGFR3 cells it was 260 nM; in test [2] (BaF3) it was 4600 nM.

With `CNc1nc(-c2ccn3c(-c4cccc(NC(=O)NCC(F)(F)F)c4)cnc3c2)ncc1F` [Example 162], the inhibition at 1 µM on VEGFR2 (1 h, read-out: VEGFR2 % I) came out at 59%. For the same molecule, the IC50 in test [1] was 0.091 µM. Moreover, in test [2] (setting [3]), the inhibition at 3 µM was found to be 37%.

`CCN(CC)CCNC(=O)C(C)(C)n1cc(-c2ccn3c(-c4cccc(NC(=O)NCC(F)(F)F)c4)cnc3c2)cn1` [Example 68, N-(2-Diethylamino-ethyl)-2-[4-(3 {3-[3-(2,2,2-trifluoro-ethyl)-ureido]-phenyl}-imidazo[1,2-a]pyridin-7-yl)-pyrazol-1-yl]-isobutyramide]: the IC50 in test [1] worked out at 0.53 µM; with Ba/F3-TEL-FGFR3 cells it was 1500 nM. For the same molecule, the inhibition at 10 µM in test [2] (setting [4]) came to 36%.

In the case of `CC(C)(C(N)=O)n1cc(-c2ccn3c(-c4cccc(NC(=O)NCC(F)(F)F)c4)cnc3c2)cn1` [Example 72, 2-[4-(3-{3-[3-(2,2,2-Trifluoro-ethyl)-ureido]-phenyl}-imidazo[1,2-a]pyridin-7-yl)-pyrazol-1-yl]-isobutyramide], the IC50 in test [1] worked out at 0.3 µM; in the test with Ba/F3-TEL-FGFR3 cells it was 760 nM. Moreover, in test [2] (setting [4]), the inhibition at 10 µM was 32%.

Turning to `Cc1cc(NC(=O)NCC(F)(F)F)cc(-c2cnc3cc(-c4ccnc(C(F)(F)F)n4)ccn23)c1` [Compound 306], the inhibition at 1 µM on VEGFR2 (1 h, read-out: VEGFR2 % I) is 60%. Also, the inhibition at 10 µM in test [2] (setting [3]) came to 0%.

As to `O=C(NCC(F)(F)F)Nc1cccc(-c2cnc3cc(-c4nc(NC5CCC5)ncc4C(F)(F)F)ccn23)c1` [Example 191], the IC50 at VEGFR2 was > 30000 nM. In addition, the inhibition at 1 µM in test [2] (setting [3]) was determined as 18%.

In the case of `O=C(NCC(F)(F)F)Nc1cc(OC2CCCC2)cc(-c2cnc3cc(-c4ncccn4)ccn23)c1` [Compound 284], the inhibition at 10 µM on VEGFR2 (1 h, at 10 μM, read-out: VEGFR2 % I) is 62%. Moreover, the inhibition at 3 µM in test [2] (setting [3]) worked out at 14%. In test [2] (BaF3), the IC50 amounted to 3400 nM.

As to `CCCCOC(=O)Nc1nc(-c2ccn3c(-c4cccc(NC(=O)NCC(F)(F)F)c4)cnc3c2)ncc1F` [Compound 314], the inhibition at 3 µM at VEGFR2 (1 h, at 3 μM, read-out: VEGFR2 % I) came to 62%. Also, in test [2] (setting [3]), the inhibition at 10 µM worked out at 21%.

Take `Nc1cc(-c2ccn3c(-c4cccc(NC(=O)NCC(F)(F)F)c4)cnc3c2)nc(C(F)(F)F)n1` [Example 210]: the inhibition at 0.1 µM on VEGFR2 (1 h, at 0.1 μM, read-out: VEGFR2 % I) came out at 42%. Also, the inhibition at 3 µM in test [2] (setting [3]) was found to be 13%.

For the molecule `CC(C)c1nccc(-c2ccn3c(-c4cccc(NC(=O)NCC(F)(F)F)c4)cnc3c2)n1` [Example 233], at VEGFR2 (1 h, at 3.1 μM, read-out: VEGFR2 % I), the inhibition at 3.1 µM was 62%. In addition, the IC50 in test [2] (BaF3) stood at 14.9 nM.

With `Cc1cc(NC(=O)NCC(F)(F)F)cc(-c2cnc3cc(-c4ncc(F)c(N)n4)ccn23)c1` [Compound 291], the inhibition at 0.98 µM at VEGFR2 (1 h, at 0.98 μM, read-out: VEGFR2 % I) was 57%. Besides, the inhibition at 1 µM in test [2] (setting [3]) amounted to 24%.

As for `O=C(NCC(F)(F)F)Nc1cccc(-c2cnc3cc(-c4ncc(C(F)(F)F)c(NC5CCC5)n4)ccn23)c1` [Example 192], the IC50 against VEGFR2 is > 3000 nM. The inhibition at 3 µM in test [2] (setting [3]) came to 49%.

On to `Cc1nc(-c2ccn3c(-c4cccc(NC(=O)NCC(F)(F)F)c4)cnc3c2)cc(N(C)C)n1` [Example 198], for which, in the test with Ba/F3-TEL-FGFR3 cells, the IC50 came out at 270 nM. The inhibition at 3 µM in test [2] (setting [3]) was found to be 39%.

Regarding `Nc1nc(-c2ccn3c(-c4cccc(NC(=O)NCC(F)(F)F)c4)cnc3c2)cc(C(F)(F)F)n1` [Example 245], the inhibition at 0.3 µM on VEGFR2 (1 h, at 0.3 μM, read-out: VEGFR2 % I) was 43%. Besides, the IC50 in test [2] (BaF3) came to 2200 nM.

Take `Cc1nc(-c2ccn3c(-c4cccc(NC(=O)NCC(F)(F)F)c4)cnc3c2)cc(C(F)(F)F)n1` [Example 238]: the inhibition at 0.31 µM on VEGFR2 (1 h, at 0.31 μM, read-out: VEGFR2 % I) turned out to be 40%. The inhibition at 10 µM in test [2] (setting [3]) worked out at 41%.
